Measurements reported in the supplement of paper PMC10307832.

Assays:
Test in all cases: relative viability (nuclei count vs DMSO), 5 days (fraction); higher = more cells survive
Dovitinib + Palbociclib = compound: CN1CCN(c2ccc3nc(-c4c(N)c5c(F)cccc5[nH]c4=O)[nH]c3c2)CC1 [Dovitinib] + CC(=O)c1c(C)c2cnc(Nc3ccc(N4CCNCC4)cn3)nc2n(C2CCCC2)c1=O [Palbociclib] (partner 0.5 µM)
Summary of the method: (§1)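 Medians of duplicate plates are given as relative viability. That measure is the nuclei count in treated wells divided by the count in vehicle wells. Counts were taken on 4× images of lung cancer cell lines in 1536-well plates, 5 days after pin-tool dosing the day after seeding with one drug alone or a fixed anchor-drug dose plus five library-drug doses (not always all listed) in √10 steps.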

Dovitinib + Crizotinib = compound: CN1CCN(c2ccc3nc(-c4c(N)c5c(F)cccc5[nH]c4=O)[nH]c3c2)CC1 [Dovitinib] + C[C@@H](Oc1cc(-c2cnn(C3CCNCC3)c2)cnc1N)c1c(Cl)ccc(F)c1Cl [Crizotinib] (partner 1 µM)
Summary of the method: as §1

Dovitinib + AZD7762 = compound: CN1CCN(c2ccc3nc(-c4c(N)c5c(F)cccc5[nH]c4=O)[nH]c3c2)CC1 [Dovitinib] + NC(=O)Nc1cc(-c2cccc(F)c2)sc1C(=O)N[C@H]1CCCNC1 [AZD7762] (partner 0.2 µM)
Summary of the method: as §1

Dovitinib + Vorinostat = compound: CN1CCN(c2ccc3nc(-c4c(N)c5c(F)cccc5[nH]c4=O)[nH]c3c2)CC1 [Dovitinib] + O=C(CCCCCCC(=O)Nc1ccccc1)NO [Vorinostat] (partner 1 µM)
Summary of the method: as §1

Cell Line	relative viability (Dovitinib + Palbociclib; first compound 0.02 µM)	relative viability (Dovitinib + Palbociclib; first compound 0.06325 µM)	relative viability (Dovitinib + Palbociclib; first compound 0.2 µM)	relative viability (Dovitinib + Palbociclib; first compound 0.6325 µM)	relative viability (Dovitinib + Palbociclib; first compound 2 µM)	relative viability (Dovitinib + Crizotinib; first compound 0.02 µM)	relative viability (Dovitinib + Crizotinib; first compound 0.06325 µM)	relative viability (Dovitinib + Crizotinib; first compound 0.2 µM)	relative viability (Dovitinib + Crizotinib; first compound 0.6325 µM)	relative viability (Dovitinib + Crizotinib; first compound 2 µM)	relative viability (Dovitinib + AZD7762; first compound 0.02 µM)	relative viability (Dovitinib + AZD7762; first compound 0.06325 µM)	relative viability (Dovitinib + AZD7762; first compound 0.2 µM)	relative viability (Dovitinib + AZD7762; first compound 0.6325 µM)	relative viability (Dovitinib + AZD7762; first compound 2 µM)	relative viability (Dovitinib + Vorinostat; first compound 0.02 µM)	relative viability (Dovitinib + Vorinostat; first compound 0.06325 µM)	relative viability (Dovitinib + Vorinostat; first compound 0.2 µM)	relative viability (Dovitinib + Vorinostat; first compound 0.6325 µM)	relative viability (Dovitinib + Vorinostat; first compound 2 µM)
HOP-62	0.355	0.456	0.465	0.396	0.499	0.861	0.923	1.15	0.943	1.01	0.364	0.534	0.697	0.62	0.551	0.469	0.469	0.588	0.667	0.797
LC-2-ad	0.484	0.449	0.472	0.484	0.504	0.486	0.436	0.5	0.453	0.465	0.842	0.835	0.819	0.883	0.88	0.674	0.735	0.712	0.758	0.804
LCLC-97TM1	0.252	0.26	0.236	0.185	0.209	0.332	0.305	0.372	0.275	0.253	0.247	0.239	0.298	0.395	0.315	0.719	0.612	0.734	0.688	0.751
LCLC-103H	0.482	0.454	0.496	0.474	0.462	0.992	0.978	0.993	0.946	0.916	0.777	0.802	0.784	0.704	0.699	0.731	0.746	0.756	0.872	0.8
LK-2	0.648	0.734	0.676	0.646	0.854	0.216	0.215	0.275	0.223	0.281	0.402	0.549	0.308	0.408	0.274	0.262	0.403	0.373	0.373	0.364
LOU-NH91	0.526	0.528	0.535	0.553	0.525	0.767	0.75	0.729	0.74	0.798	0.783	0.736	0.707	0.778	0.783	0.961	0.846	0.919	0.984	0.94
LU99A	0.388	0.37	0.387	0.423	0.406	0.548	0.597	0.601	0.561	0.547	0.294	0.469	0.358	0.277	0.387	0.456	0.555	0.46	0.615	0.624
LXF-289	0.577	0.604	0.621	0.598	0.566	0.736	0.816	0.789	0.794	0.838	1.07	1.06	1.07	1.13	1.05	0.781	0.836	0.807	0.847	0.746
NCI-H23	0.482	0.58	0.574	0.515	0.541	0.539	0.531	0.526	0.421	0.554	0.287	0.233	0.23	0.275	0.377	0.551	0.699	0.616	0.735	0.643
NCI-H322M	0.46	0.471	0.468	0.482	0.487	0.893	0.874	0.976	0.928	1.06	0.555	0.738	0.725	0.541	0.398	0.768	0.831	0.807	0.926	0.84
NCI-H358	0.153	0.141	0.118	0.135	0.135	0.569	0.566	0.507	0.459	0.793	0.483	0.518	0.444	0.544	0.517	0.673	0.808	0.738	0.619	0.639
NCI-H441	0.22	0.195	0.212	0.221	0.194	0.597	0.661	0.715	0.862	0.798	1.17	0.977	1.22	1.2	1.27	0.76	0.795	0.849	0.628	0.772
NCI-H460	0.147	0.226	0.159	0.163	0.142	0.852	1.02	0.869	0.941	0.919	0.611	0.662	0.54	0.61	0.556	0.682	0.77	0.729	0.711	0.711
NCI-H647	0.337	0.427	0.378	0.402	0.431	1.03	1.14	1.24	1.01	1.1	0.42	0.404	0.493	0.522	0.398	0.52	0.658	0.659	0.434	0.851
NCI-H650	0.321	0.333	0.359	0.317	0.357	0.771	0.638	0.563	0.645	0.789	1.05	1.35	0.951	1.08	1	0.368	0.414	0.58	0.395	0.774
NCI-H727	0.667	0.62	0.669	0.671	0.668	0.42	0.757	0.657	0.877	0.813	0.639	0.536	0.597	0.637	0.555	1.19	1.12	1.25	1.39	1.25

Cell Line	relative viability (Dovitinib + Palbociclib; first compound 0.02 µM)	relative viability (Dovitinib + Palbociclib; first compound 0.06325 µM)	relative viability (Dovitinib + Palbociclib; first compound 0.2 µM)	relative viability (Dovitinib + Palbociclib; first compound 0.6325 µM)	relative viability (Dovitinib + Palbociclib; first compound 2 µM)	relative viability (Dovitinib + Crizotinib; first compound 0.02 µM)	relative viability (Dovitinib + Crizotinib; first compound 0.06325 µM)	relative viability (Dovitinib + Crizotinib; first compound 0.2 µM)	relative viability (Dovitinib + Crizotinib; first compound 0.6325 µM)	relative viability (Dovitinib + Crizotinib; first compound 2 µM)	relative viability (Dovitinib + AZD7762; first compound 0.02 µM)	relative viability (Dovitinib + AZD7762; first compound 0.06325 µM)	relative viability (Dovitinib + AZD7762; first compound 0.2 µM)	relative viability (Dovitinib + AZD7762; first compound 0.6325 µM)	relative viability (Dovitinib + AZD7762; first compound 2 µM)	relative viability (Dovitinib + Vorinostat; first compound 0.02 µM)	relative viability (Dovitinib + Vorinostat; first compound 0.06325 µM)	relative viability (Dovitinib + Vorinostat; first compound 0.2 µM)	relative viability (Dovitinib + Vorinostat; first compound 0.6325 µM)	relative viability (Dovitinib + Vorinostat; first compound 2 µM)
NCI-H838	0.231	0.209	0.217	0.217	0.228	0.788	0.817	0.818	0.816	0.785	0.864	0.979	0.912	0.986	0.96	0.711	0.742	0.706	0.716	0.677
NCI-H1355	0.416	0.41	0.465	0.397	0.415	1.06	1.02	1.06	1.09	1.06	0.695	0.745	0.746	0.703	0.727	0.671	0.638	0.628	0.695	0.704
NCI-H1437	0.305	0.301	0.321	0.32	0.321	0.867	0.947	0.781	0.929	0.868	1.19	1.09	1.22	1.11	1.09	0.884	0.847	0.9	0.803	0.745
NCI-H1651	0.538	0.532	0.526	0.53	0.549	0.927	0.882	0.824	0.829	0.858	0.45	0.507	0.505	0.466	0.429	0.491	0.593	0.539	0.597	0.543
NCI-H1666	0.698	0.657	0.677	0.625	0.669	0.966	1.14	1.08	0.964	1.04	0.876	0.859	0.882	0.855	0.812	1.15	0.919	1.11	1.04	1.05
NCI-H1734	0.371	0.387	0.355	0.338	0.416	0.635	0.664	0.637	0.598	0.643	0.532	0.505	0.475	0.583	0.71	0.832	0.773	0.784	0.785	0.875
NCI-H1755	0.47	0.427	0.479	0.463	0.471	0.861	0.878	0.834	0.852	0.86	0.427	0.461	0.484	0.593	0.436	0.798	0.83	0.884	0.935	0.776
NCI-H1915	0.512	0.533	0.537	0.488	0.553	0.854	0.886	0.838	0.922	0.841	0.609	0.708	0.705	0.614	0.693	0.469	0.502	0.531	0.499	0.531
NCI-H1944	0.305	0.356	0.323	0.346	0.308	1.02	1.13	1.05	1.08	1.18	0.564	0.788	0.531	0.523	0.475	0.502	0.702	0.646	0.583	0.64
NCI-H1975	0.657	0.674	0.58	0.645	0.598	0.898	0.934	1.02	0.937	0.95	0.708	0.577	0.728	0.738	0.653	0.692	0.728	0.662	0.734	0.682
NCI-H1993	0.856	0.721	0.639	0.547	0.66	0.917	0.818	0.811	1.04	0.942	1.01	0.724	0.887	0.985	0.849	0.929	0.754	0.823	0.76	0.943
NCI-H2085	0.481	0.476	0.477	0.415	0.493	0.753	0.904	0.851	0.856	0.9	1.07	1.13	1.04	0.998	1.04	0.808	0.821	0.819	0.765	0.801
NCI-H2087	0.276	0.229	0.191	0.197	0.255	0.817	0.66	0.878	0.796	0.778	1.35	1.38	1.27	1.29	1.31	0.817	0.79	0.685	0.837	0.803
NCI-H2126	0.363	0.357	0.354	0.339	0.327	1.03	1.04	1.05	1.02	1.08	0.982	1.04	1.03	1.04	1	0.811	0.819	0.798	0.876	0.838
NCI-H2170	0.419	0.448	0.399	0.39	0.407	1.12	1.23	1.23	1.14	1.2	0.773	1.02	0.928	0.857	0.883	0.752	0.783	0.819	0.839	0.783
NCI-H2347	0.454	0.446	0.462	0.474	0.409	0.784	0.653	0.79	0.961	0.676	0.701	0.606	0.864	0.774	0.754	0.694	0.647	0.561	0.692	0.686
